Laboratory results published in US20220009988A1, “PEPTIDE MODULATORS OF THE INTERACTION BETWEEN HUMAN C-PEPTIDE AND HUMAN ELASTIN RECEPTOR FOR THERAPEUTIC USE” (Biotempt B.V., priority 2017, published 2022).

Legend:
[1] = tested on: glucose-induced vascular dysfunction; conditions: cited from earlier work; for potency on vascular dysfunction relative to native C-peptide / prevention of vascular dysfunction (active / inactive): skin chamber granulation tissue model in rats; for normalization (%) of 30 mM glucose-induced vascular dysfunction: rats, FIG. 1 adapted from Ido et al. 1997
[2] = tested on: human renal tubular cells; conditions: cited from earlier work
[3] = biological target: human elastin receptor (elastin binding protein, EBP) on CD4+ immune cells (human)
[4] = tested on: cell membrane-bound C-peptide; conditions: cited from earlier work
[5] = tested on: MAP kinase signaling pathways; conditions: cited from earlier work
[6] = tested on: CD4+ immune cells; test: classical Boyden chamber experiment, migration of CD4+ immune cells; format: cell-based; conditions: V14-peptide at 1.3 microM; C-peptide at 10 nM
Source text: Moreover, additional examples of fragments of the human C-peptide are provided herein and ^14, all bearing a mid-portion hexapeptide 12 SEQ ID NO:34 (LGGGPG) 17, that all prevented vascular dysfunction whereas other human C-peptide fragments, wherein the hexapeptide mid-portion was disrupted, were found not active. […] Human C-peptide and its xGxxPG containing fragments may thus be considered an unexpected species of the genus of a larger class of peptides: elastin peptides capable of elastin receptor activation, whereby excess C-peptide may be meddling with elastin receptor mediated tissue repair, modulating chronic-low grade inflammation, IR and hypertension. […] This provides a substantial jump in our understanding of the causes of metabolic syndrome and other lifestyle- or age-related conditions of IR. […] It is provided to do these tests with synthetic human C-peptide variants or fragments, provided with or without the sequence GxxP, to study binding, including classical elastin receptor antagonist V14 peptide to study inhibition of binding. Similarly, one can do the C-peptide tests in a skin chamber granulation tissue model of vascular function ^14, or test synthetic, inducibly or constitutively expressed C-peptide in established models of atherosclerosis, Neu-1 mediated IR or PPCA mediated hypertension ^7-9.

[7] = tested on: bioactivity of C-peptide; test: preliminary in-vitro inhibition of bioactivity of C-peptide; conditions: preliminary in-vitro results
[8] = tested on: Na^+K^+ATPase; conditions: rat renal tubule cells; cited from earlier work

D--1EAEDLQVGQVELGGGPGAGSLQPLALEGSLQ31 [enantio C-peptide]
potency on vascular dysfunction relative to native C-peptide [1]: equipotent to native C-peptide

EAENPQAGAVELGGGLGGLQALALEGPPQ [pig C-peptide]
prevention of vascular dysfunction (active / inactive) [1]: inactive

QLSGELALPQLSGAGPGGGLEVQGVQLDEAE (retro C-peptide)
potency on vascular dysfunction relative to native C-peptide [1]: equipotent to native C-peptide

DLQVGQVELGGGPGAGSLQPLALEGSLQ [SEQ ID NO:10]
normalization (%) of 30 mM glucose-induced vascular dysfunction [1]: significant normalization

LGGGPGAGSLQPLALEGSLQ [SEQ ID NO:14]
normalization (%) of 30 mM glucose-induced vascular dysfunction [1]: significant normalization

ELGGGPGAGSLQPL [SEQ ID NO:176]
normalization (%) of 30 mM glucose-induced vascular dysfunction [1]: significant normalization

DLQVGQVELGGGPGAGSLQPL [SEQ ID NO:20]
normalization (%) of 30 mM glucose-induced vascular dysfunction [1]: significant normalization

EVARQ [SEQ ID NO:7]
intracellular Ca2+ [2]: may induce intracellular Ca2+ increases

GGGPGAG [SEQ ID NO:8]
normalization (%) of 30 mM glucose-induced vascular dysfunction [1]: normalize

human C-peptide
migration of CD4+ immune cells in a classical Boyden chamber experiment (% increase of migration) [3]: 100

EVEDPQVPQLELGGGPEAGDLQTLALEVARQ [Rat C-peptide]
prevention of vascular dysfunction (active / inactive) [1]: active

EGSLQ [SEQ ID NO:6]
intracellular Ca2+ [2]: may induce intracellular Ca2+ increases | displacement of cell membrane-bound C-peptide [4]: displaces | MAP kinase signaling pathways [5]: stimulates

GQVELGGGPGAGSLQPLALEGSLQ [SEQ ID NO:13]
normalization (%) of 30 mM glucose-induced vascular dysfunction [1]: significant normalization

VGQVELGGGPGAGSLQPL [SEQ ID NO:175]
normalization (%) of 30 mM glucose-induced vascular dysfunction [1]: significant normalization

VVGSPSAQDEASPL [V14-peptide]
C-peptide-induced CD4-migration inhibited, antagonized and diminished [6]: > 50% | inhibition of bioactivity of C-peptide [7]: inhibition

ELGGGPGAG [SEQ ID NO:9]
Na^+K^+ATPase activity [8]: stimulate

EAEDLQVGQVELGGGPGAGSLQPL (EAEDLQVGQVELGGGPGAGSLQPLAL) [SEQ ID NO:17]
normalization (%) of 30 mM glucose-induced vascular dysfunction [1]: significant normalization
